Reference: patent publication US9187484B2 (Southern Research Institute, priority 2012, dated 2015)

Legend:
LRRK2 (G2019S) = target: T1, LRRK2 (G2019S) (Homo sapiens, UniProt Q5S007, G2019S); experiment: LRRK2 inhibition, radiometric kinase assay with recombinant GST-LRRK2 (delta970) and peptide substrate; type: biochemical; settings: GST-LRRK2 (delta970) G2019S 30 nM, ATP ~52 μM (Km), 30 min at 30° C.
T1 construct: Recombinant GST-LRRK2 (delta970), purified from baculovirus infected insect cells (SF9); GST (N); host or cells: baculovirus infected insect cells (SF9)
Summary of the method: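 Recombinant GST-LRRK2 (delta970) from SF9 cells, wild-type or G2019S, at 30 nM in 50 mM Tris HCl pH 7.4, 1 mM EDTA with 50 μM peptide substrate and 0.1% DMSO. ATP at Km (˜92 μM WT, ˜52 μM G2019S) with 10 mM MgCl2 and gamma-32-P label; 30 min at 30° C. Phosphocellulose capture, scintillation counting.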

WT-LRRK2 or G2019S-LRRK2 = experiment: Inhibition of LRRK2 phosphorylation (pS935 antibody) in lysates of transfected HEK-293T cells; type: cell-based; settings: HEK-293T cells transiently transfected with either WT-LRRK2 or G2019S-LRRK2
From the text: To test whether Example 90 and Example 34 can inhibit LRRK2 phosphorylation, an antibody commercially available from Epitomics directed against the serine residue number 935 on LRRK2 from lysates generated from HEK-293T cells transiently transfected with either WT-LRRK2 or G2019S-LRRK2 protein.

G2019S-LRRK2 = experiment: LPS-induced TNF-alpha in primary macrophages over-expressing G2019S-LRRK2; type: cell-based, mice; settings: 5 μM 1 hour prior to LPS stimulation (100 ng/ml), TNF-alpha measured 6 hours later
From the text: Recently, high levels of LRRK2 expression in primary microglia that are the immune cells of the nervous system have been discovered (Moehle et al., J. Neuroscience (2012), PMID 22302802). […] More recently, LRRK2 has also been detected in primary macrophages, specifically macrophages isolated after thioglycolate exposures in mice. To assess whether Example 90 can inhibit the G2019S-LRRK2 induced increase in TNF-alpha to wild-type levels of TNF-alpha induction by LPS, primary macrophages were exposed in culture to 5 μM 1 hour prior to LPS stimulation (100 ng/ml), and TNF-alpha levels were measured 6 hours later.

T1 sequence (Q5S007 970-2527 G2019S limits assumed): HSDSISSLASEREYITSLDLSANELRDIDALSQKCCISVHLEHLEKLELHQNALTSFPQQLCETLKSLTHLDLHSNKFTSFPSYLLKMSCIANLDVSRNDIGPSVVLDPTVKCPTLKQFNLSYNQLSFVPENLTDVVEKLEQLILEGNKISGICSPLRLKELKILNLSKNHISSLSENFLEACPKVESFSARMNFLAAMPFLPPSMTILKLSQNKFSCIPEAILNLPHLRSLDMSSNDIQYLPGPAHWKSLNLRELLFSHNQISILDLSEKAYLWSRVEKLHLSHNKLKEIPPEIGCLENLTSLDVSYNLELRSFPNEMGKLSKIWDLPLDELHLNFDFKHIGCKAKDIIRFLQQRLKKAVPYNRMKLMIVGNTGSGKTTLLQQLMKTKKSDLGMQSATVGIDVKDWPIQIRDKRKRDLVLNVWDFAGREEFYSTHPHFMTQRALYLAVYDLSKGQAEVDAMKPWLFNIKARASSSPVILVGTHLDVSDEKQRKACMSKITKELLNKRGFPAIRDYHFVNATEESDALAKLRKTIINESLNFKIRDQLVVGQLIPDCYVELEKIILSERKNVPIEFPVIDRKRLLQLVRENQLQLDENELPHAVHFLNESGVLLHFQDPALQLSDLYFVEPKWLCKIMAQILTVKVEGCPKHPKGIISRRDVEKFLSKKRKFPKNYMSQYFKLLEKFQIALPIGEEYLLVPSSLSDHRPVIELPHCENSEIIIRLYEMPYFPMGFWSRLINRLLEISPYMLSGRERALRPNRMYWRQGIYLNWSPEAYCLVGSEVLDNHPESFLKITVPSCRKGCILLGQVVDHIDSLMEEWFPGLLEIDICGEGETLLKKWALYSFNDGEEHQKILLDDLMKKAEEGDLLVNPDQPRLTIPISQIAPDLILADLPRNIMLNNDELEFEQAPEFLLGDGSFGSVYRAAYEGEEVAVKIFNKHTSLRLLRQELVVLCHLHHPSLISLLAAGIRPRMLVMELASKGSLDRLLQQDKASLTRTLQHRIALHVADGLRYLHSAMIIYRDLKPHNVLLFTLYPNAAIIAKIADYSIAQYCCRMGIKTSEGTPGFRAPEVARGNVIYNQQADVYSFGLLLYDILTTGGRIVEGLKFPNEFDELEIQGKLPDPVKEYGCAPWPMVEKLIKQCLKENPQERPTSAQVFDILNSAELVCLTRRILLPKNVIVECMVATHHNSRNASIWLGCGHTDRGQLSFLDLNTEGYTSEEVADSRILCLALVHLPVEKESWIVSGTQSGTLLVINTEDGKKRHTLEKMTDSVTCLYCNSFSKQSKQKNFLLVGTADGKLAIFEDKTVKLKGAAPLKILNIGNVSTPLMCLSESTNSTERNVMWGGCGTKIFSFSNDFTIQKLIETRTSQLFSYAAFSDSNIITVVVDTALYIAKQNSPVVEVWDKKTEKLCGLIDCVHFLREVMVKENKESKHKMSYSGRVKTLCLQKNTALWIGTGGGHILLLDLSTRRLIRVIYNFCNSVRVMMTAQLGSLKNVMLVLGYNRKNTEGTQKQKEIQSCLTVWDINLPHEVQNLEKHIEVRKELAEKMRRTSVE

SMILES	IC50 (LRRK2 (G2019S)) [µM]	levels of pS935 on LRRK2 (WT-LRRK2 or G2019S-LRRK2)	TNF-alpha levels (G2019S-LRRK2 induced increase) (G2019S-LRRK2)
CC(Sc1ccc2nnc(-c3ccnn3C)n2n1)C(=O)N1CCCCC1 (stereo not shown) [Example 112, 2-((3-(1-methyl-1H-pyrazol-5-yl)-[1,2,4]triazolo[4,3-b]pyridazin-6-yl)thio)-1-(piperidin-1-yl)propan-1-one]	≥ 5	–	–
CC(Sc1ccc2nnc(-c3ccn[nH]3)n2n1)C(=O)N1CCCCC1 (stereo not shown) [Example 115, 2-((3-(1H-pyrazol-5-yl)-[1,2,4]triazolo[4,3-b]pyridazin-6-yl)thio)-1-(piperidin-1-yl)propan-1-one]	0.1 to 1	–	–
CCCN(CCC)C(=O)C(C)Sc1ccc2nnc(-c3cccs3)n2n1 (stereo not shown) [Example 123, N,N-dipropyl-2-((3-(thiophen-2-yl)-[1,2,4]triazolo[4,3-b]pyridazin-6-yl)thio)propanamide]	1 to 5	–	–
CC(Sc1ccc2nnc(-c3nccs3)n2n1)C(=O)O (stereo not shown) [Example 124, 2-((3-(thiazol-2-yl)-[1,2,4]triazolo[4,3-b]pyridazin-6-yl)thio)propanoic acid]	0.1 to 1	–	–
CC(Sc1ccc2nnc(-c3nccs3)n2n1)C(=O)N1CCCCC1 (stereo not shown) [Example 125, 1-(piperidin-1-yl)-2-((3-(thiazol-2-yl)-[1,2,4]triazolo[4,3-b]pyridazin-6-yl)thio)propan-1-one]	0.1 to 1	–	–
CC(Sc1ccc2nnc(-c3nccs3)n2n1)C(=O)N1CCC1 (stereo not shown) [Example 126, 1-(azetidin-1-yl)-2-((3-(thiazol-2-yl)-[1,2,4]triazolo[4,3-b]pyridazin-6-yl)thio)propan-1-one]	0.1 to 1	–	–

Now from value to compound, other results behind:

IC50 (LRRK2 (G2019S)) [µM]	SMILES	levels of pS935 on LRRK2 (WT-LRRK2 or G2019S-LRRK2)	TNF-alpha levels (G2019S-LRRK2 induced increase) (G2019S-LRRK2)
< 0.1	CCC(Sc1ccc2nnc(-c3cccs3)n2n1)C(=O)N1CCCCC1 (stereo not shown) [Example 34, 1-(piperidin-1-yl)-2-((3-(thiophen-2-yl)-[1,2,4]triazolo[4,3-b]pyridazin-6-yl)thio)butan-1-one]	partially inhibited	–
< 0.1	CC(Sc1ccc2nnc(-c3cccs3)n2n1)C(=O)N1CCCCC1 (stereo not shown) [Example 90, 1-(piperidin-1-yl)-2-((3-(thiophen-2-yl)-[1,2,4]triazolo[4,3-b]pyridazin-6-yl)thio)propan-1-one]	partially inhibited	successfully returned G2019S-LRRK2 over-expressing cells back to WT levels
0.1 to 1	CC(Sc1ccc2nnc(-c3ncccn3)n2n1)C(=O)N1CCCCC1 (stereo not shown) [Example 109, 1-(piperidin-1-yl)-2-((3-(pyrimidin-2-yl)-[1,2,4]triazolo[4,3-b]pyridazin-6-yl)thio)propan-1-one]	–	–
0.1 to 1	CC(Sc1ccc2nnc(-c3cscn3)n2n1)C(=O)N1CCCCC1 (stereo not shown) [Example 110, 1-(piperidin-1-yl)-2-((3-(thiazol-4-yl)-[1,2,4]triazolo[4,3-b]pyridazin-6-yl)thio)propan-1-one]	–	–
0.1 to 1	CC(Sc1ccc2nnc(-c3cscn3)n2n1)C(=O)N1CCCC1 (stereo not shown) [Example 111, 1-(pyrrolidin-1-yl)-2-((3-(thiazol-4-yl)-[1,2,4]triazolo[4,3-b]pyridazin-6-yl)thio)propan-1-one]	–	–
0.1 to 1	CC(Sc1ccc2nnc(-c3ccn(C)n3)n2n1)C(=O)N1CCCCC1 (stereo not shown) [Example 113, 2-((3-(1-methyl-1H-pyrazol-3-yl)-[1,2,4]triazolo[4,3-b]pyridazin-6-yl)thio)-1-(piperidin-1-yl)propan-1-one]	–	–
0.1 to 1	CCC(Sc1ccc2nnc(-c3cccs3)n2n1)C(=O)N1CCC1 (stereo not shown) [Example 114, 1-(azetidin-1-yl)-2-((3-(thiophen-2-yl)-[1,2,4]triazolo[4,3-b]pyridazin-6-yl)thio)butan-1-one]	–	–
